Experimental data: ChEMBL document CHEMBL5257085, “Siderophores: Chemical tools for precise antibiotic delivery” (Bioorg Med Chem Lett, 2023)
In brackets after ≈: the same amount, converted by molar mass.

Experiments:
Pseudomonas aeruginosa [1] = experiment: Antibacterial activity against Pseudomonas aeruginosa assessed as inhibition of bacterial growth incubated for 18 to 48 hrs by two-fold serial dilution method; type: functional; conditions: time 18-48 hrs
DNA gyrase = DNA gyrase (Escherichia coli, UniProt P0AES4+P0AES6); experiment: Inhibition of Escherichia coli DNA gyrase ATPase activity using pBR322 as substrate incubated for 10 mins in presence of NADH and ATP by supercoiling assay; type: protein-complex assay
Escherichia coli [2] = experiment: Antibacterial activity against Escherichia coli JW5503 harbouring tolC-knock out mutant assessed as inhibition of bacterial growth incubated for 24 hrs by CLSI protocol based broth microdilution method; type: functional
Pseudomonas aeruginosa [3] = experiment: Antibacterial activity against IMP-1 producing Pseudomonas aeruginosa assessed as inhibition of bacterial growth by CLSI protocol based broth microdilution method; type: functional
Pseudomonas aeruginosa [4] = experiment: Antibacterial activity against VIM-2 producing Pseudomonas aeruginosa assessed as inhibition of bacterial growth by CLSI protocol based broth microdilution method; type: functional
Klebsiella pneumoniae [5] = experiment: Antibacterial activity against NDM-1 producing Klebsiella pneumoniae assessed as inhibition of bacterial growth by CLSI protocol based broth microdilution method; type: functional
Klebsiella pneumoniae [6] = experiment: Antibacterial activity against KPC-2 producing Klebsiella pneumoniae assessed as inhibition of bacterial growth by CLSI protocol based broth microdilution method; type: functional
Klebsiella pneumoniae [7] = experiment: Antibacterial activity against KPC-3 producing Klebsiella pneumoniae assessed as inhibition of bacterial growth by CLSI protocol based broth microdilution method; type: functional
Escherichia coli [8] = experiment: Antibacterial activity against NDM-1 producing Escherichia coli assessed as inhibition of bacterial growth by CLSI protocol based broth microdilution method; type: functional
Acinetobacter baumannii [9] = experiment: Antibacterial activity against OXA-23 producing Acinetobacter baumannii assessed as inhibition of bacterial growth by CLSI protocol based broth microdilution method; type: functional
[10] = tested on: Stenotrophomonas maltophilia; experiment: Antibacterial activity against L1 producing Stenotrophomonas maltophilia assessed as inhibition of bacterial growth by CLSI protocol based broth microdilution method; type: functional
Acinetobacter baumannii [11] = experiment: Potentiation of imipenem-induced antibacterial activity against OXA-235 producing Acinetobacter baumannii ATCC 17978 assessed as fold change in imipenem MIC; type: functional
Acinetobacter baumannii [12] = experiment: Potentiation of imipenem-induced antibacterial activity against OXA-143 producing Acinetobacter baumannii ATCC 17978 assessed as fold change in imipenem MIC; type: functional
Acinetobacter baumannii [13] = experiment: Potentiation of imipenem-induced antibacterial activity against OXA-58 producing Acinetobacter baumannii ATCC 17978 assessed as fold change in imipenem MIC; type: functional
Acinetobacter baumannii [14] = experiment: Potentiation of imipenem-induced antibacterial activity against OXA-24 producing Acinetobacter baumannii ATCC 17978 assessed as fold change in imipenem MIC; type: functional
Acinetobacter baumannii [15] = experiment: Potentiation of imipenem-induced antibacterial activity against OXA-23 producing Acinetobacter baumannii ATCC 17978 assessed as fold change in imipenem MIC; type: functional

CC(=O)NC[C@H]1CN(c2ccc(N3CCN(C(=O)Cn4cc(COC(=O)NCCCCNC(=O)c5cccc(O)c5O)nn4)CC3)c(F)c2)C(=O)O1
MIC (Pseudomonas aeruginosa [1]): 128 µM (≈ 92.9 µg/mL)

Cc1[nH]c(C(=O)N[C@H]2CCc3nc(NC(=O)CNC(=O)c4ccc(O)c(O)c4)sc3C2)c(Cl)c1Cl
IC50 (DNA gyrase): 58 nM | MIC (Escherichia coli [2]): 14 µg/mL (≈ 26 µM)

CC(C)(O/N=C(\C(=O)N[C@@H]1C(=O)N2C(C(=O)[O-])=C(C[N+]3(CCNC(=O)c4ccc(O)c(O)c4Cl)CCCC3)CS[C@H]12)c1csc(N)n1)C(=O)O [CEFIDEROCOL]
MIC50 (Pseudomonas aeruginosa [3]): 0.12 µg/mL (≈ 0.16 µM) | MIC50 (Pseudomonas aeruginosa [4]): 0.12 µg/mL (≈ 0.16 µM) | MIC50 (Klebsiella pneumoniae [5]): 0.12 µg/mL (≈ 0.16 µM) | MIC50 (Klebsiella pneumoniae [6]): 0.12 µg/mL (≈ 0.16 µM) | MIC50 (Klebsiella pneumoniae [7]): 0.12 µg/mL (≈ 0.16 µM) | MIC50 (Escherichia coli [8]): 0.12 µg/mL (≈ 0.16 µM) | MIC50 (Acinetobacter baumannii [9]): 0.12 µg/mL (≈ 0.16 µM) | MIC50 [10]: 0.12 µg/mL (≈ 0.16 µM)

C[C@]1(COC(=O)Cc2ccc(O)c(O)c2)[C@H](C(=O)O)N2C(=O)/C(=C/c3ccccn3)[C@H]2S1(=O)=O
fold change (FC) (Acinetobacter baumannii [11]): 32 | fold change (FC) (Acinetobacter baumannii [12]): 32 | fold change (FC) (Acinetobacter baumannii [13]): 32 | fold change (FC) (Acinetobacter baumannii [14]): 32 | fold change (FC) (Acinetobacter baumannii [15]): 32

CC(=O)NC[C@H]1CN(c2ccc(N3CCOCC3)c(F)c2)C(=O)O1 [LINEZOLID]
MIC (Pseudomonas aeruginosa [1]): > 1020 µM
